According to ChEMBL document CHEMBL3991601, “The target landscape of clinical kinase drugs” (Science, 2017):
Activity calls are given as the source filed them. For most assays here, no stated cut-off is given here; in the data, actives have a measured Kd and inactives only a lower limit.

Tests used:
[1] = target: Serine/threonine-protein kinase B-raf (Homo sapiens, UniProt P15056)
[2] = target: Tyrosine-protein kinase Fyn (Homo sapiens, UniProt P06241)
[3] = target: Mitogen-activated protein kinase 9 (Homo sapiens, UniProt P45984)
[4] = target: Macrophage-stimulating protein receptor (Homo sapiens, UniProt Q04912)
[5] = target: T1, Ras-related protein Rab-10 (Homo sapiens, UniProt P61026)
T1 sequence (P61026 whole entry): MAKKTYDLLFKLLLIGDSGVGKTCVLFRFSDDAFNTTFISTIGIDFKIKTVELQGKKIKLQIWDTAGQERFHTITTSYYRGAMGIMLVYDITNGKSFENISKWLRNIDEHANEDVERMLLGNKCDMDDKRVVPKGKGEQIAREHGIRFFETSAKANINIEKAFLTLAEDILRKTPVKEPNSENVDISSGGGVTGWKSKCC

[6] = target: T2, Ras-related protein Rab-27A (Homo sapiens, UniProt P51159)
T2 sequence (P51159 whole entry): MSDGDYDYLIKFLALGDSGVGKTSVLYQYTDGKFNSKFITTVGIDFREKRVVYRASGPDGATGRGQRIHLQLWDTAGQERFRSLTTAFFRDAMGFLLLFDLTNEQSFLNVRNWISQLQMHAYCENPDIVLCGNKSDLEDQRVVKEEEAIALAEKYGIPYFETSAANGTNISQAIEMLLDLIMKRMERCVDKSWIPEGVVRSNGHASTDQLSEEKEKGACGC

[7] = target: GTP-binding nuclear protein Ran (Homo sapiens, UniProt P62826)
Septin-9 = target: T3, Septin-9 (Homo sapiens, UniProt Q9UHD8)
T3 sequence (Q9UHD8 whole entry): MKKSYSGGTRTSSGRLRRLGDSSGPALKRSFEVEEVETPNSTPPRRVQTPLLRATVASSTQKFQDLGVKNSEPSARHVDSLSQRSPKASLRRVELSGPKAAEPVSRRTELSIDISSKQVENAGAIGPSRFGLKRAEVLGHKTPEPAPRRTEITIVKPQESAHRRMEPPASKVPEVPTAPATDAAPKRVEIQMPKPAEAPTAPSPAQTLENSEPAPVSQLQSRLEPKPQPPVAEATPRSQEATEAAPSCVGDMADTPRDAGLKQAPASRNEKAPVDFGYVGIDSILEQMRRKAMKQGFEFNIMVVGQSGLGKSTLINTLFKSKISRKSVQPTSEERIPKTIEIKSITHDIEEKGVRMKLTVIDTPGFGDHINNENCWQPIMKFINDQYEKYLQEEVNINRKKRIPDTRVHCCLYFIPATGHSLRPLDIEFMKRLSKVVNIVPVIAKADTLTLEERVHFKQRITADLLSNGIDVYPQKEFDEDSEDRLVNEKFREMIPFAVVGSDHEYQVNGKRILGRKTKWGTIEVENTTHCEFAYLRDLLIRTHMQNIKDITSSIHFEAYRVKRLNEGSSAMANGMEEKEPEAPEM

[8] = target: T4, Serine/threonine-protein kinase ULK1 (Homo sapiens, UniProt O75385)
T4 sequence (O75385 whole entry): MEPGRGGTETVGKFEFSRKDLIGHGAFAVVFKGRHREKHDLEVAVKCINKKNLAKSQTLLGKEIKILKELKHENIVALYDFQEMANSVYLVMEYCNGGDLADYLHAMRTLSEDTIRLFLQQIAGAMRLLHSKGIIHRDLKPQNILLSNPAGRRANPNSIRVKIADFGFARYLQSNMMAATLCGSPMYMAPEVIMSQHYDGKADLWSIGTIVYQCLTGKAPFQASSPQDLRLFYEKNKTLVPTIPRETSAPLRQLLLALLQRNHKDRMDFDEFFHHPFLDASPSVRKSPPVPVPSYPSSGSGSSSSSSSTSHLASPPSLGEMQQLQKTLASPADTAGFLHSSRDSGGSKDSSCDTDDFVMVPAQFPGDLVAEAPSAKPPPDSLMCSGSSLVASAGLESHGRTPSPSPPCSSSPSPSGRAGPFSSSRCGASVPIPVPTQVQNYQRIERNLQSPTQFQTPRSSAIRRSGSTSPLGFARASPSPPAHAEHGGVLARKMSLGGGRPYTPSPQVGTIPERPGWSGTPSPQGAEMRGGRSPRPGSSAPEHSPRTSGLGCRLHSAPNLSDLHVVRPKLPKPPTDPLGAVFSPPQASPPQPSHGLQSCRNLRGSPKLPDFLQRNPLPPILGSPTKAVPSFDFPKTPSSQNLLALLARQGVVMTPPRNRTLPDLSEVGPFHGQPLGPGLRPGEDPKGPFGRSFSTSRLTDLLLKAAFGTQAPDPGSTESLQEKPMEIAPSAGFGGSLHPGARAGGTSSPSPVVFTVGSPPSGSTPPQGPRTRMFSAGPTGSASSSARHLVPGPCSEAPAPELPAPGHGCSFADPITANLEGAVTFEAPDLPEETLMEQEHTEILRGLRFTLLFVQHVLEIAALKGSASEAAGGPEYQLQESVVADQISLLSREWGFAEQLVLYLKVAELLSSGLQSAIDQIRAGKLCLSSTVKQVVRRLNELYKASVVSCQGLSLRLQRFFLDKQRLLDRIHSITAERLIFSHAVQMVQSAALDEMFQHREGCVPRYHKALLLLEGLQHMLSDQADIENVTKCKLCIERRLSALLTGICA

Measured: Kd

Sequence of Mitogen-activated protein kinase 9 (P45984 whole entry): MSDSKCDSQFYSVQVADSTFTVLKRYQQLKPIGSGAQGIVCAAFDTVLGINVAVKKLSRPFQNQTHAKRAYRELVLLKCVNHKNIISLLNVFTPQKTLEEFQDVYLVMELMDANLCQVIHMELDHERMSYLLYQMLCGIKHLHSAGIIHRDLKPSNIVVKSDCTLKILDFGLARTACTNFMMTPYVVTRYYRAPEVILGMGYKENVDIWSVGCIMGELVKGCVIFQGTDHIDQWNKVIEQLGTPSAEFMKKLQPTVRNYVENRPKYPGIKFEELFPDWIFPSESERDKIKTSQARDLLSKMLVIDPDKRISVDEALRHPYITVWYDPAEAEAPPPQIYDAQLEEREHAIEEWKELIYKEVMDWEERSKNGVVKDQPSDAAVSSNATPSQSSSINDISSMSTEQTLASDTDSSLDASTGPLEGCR
Sequence of Macrophage-stimulating protein receptor (Q04912 25-304 limits assumed): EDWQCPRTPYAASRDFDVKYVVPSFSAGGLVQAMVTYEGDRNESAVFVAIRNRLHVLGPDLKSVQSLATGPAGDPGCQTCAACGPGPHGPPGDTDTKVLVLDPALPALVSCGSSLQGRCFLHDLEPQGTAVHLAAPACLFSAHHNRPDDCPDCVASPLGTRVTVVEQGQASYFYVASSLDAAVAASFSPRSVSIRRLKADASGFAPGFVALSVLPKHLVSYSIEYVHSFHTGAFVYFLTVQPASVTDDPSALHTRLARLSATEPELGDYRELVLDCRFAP
Sequence of Macrophage-stimulating protein receptor (Q04912 310-1400 limits assumed): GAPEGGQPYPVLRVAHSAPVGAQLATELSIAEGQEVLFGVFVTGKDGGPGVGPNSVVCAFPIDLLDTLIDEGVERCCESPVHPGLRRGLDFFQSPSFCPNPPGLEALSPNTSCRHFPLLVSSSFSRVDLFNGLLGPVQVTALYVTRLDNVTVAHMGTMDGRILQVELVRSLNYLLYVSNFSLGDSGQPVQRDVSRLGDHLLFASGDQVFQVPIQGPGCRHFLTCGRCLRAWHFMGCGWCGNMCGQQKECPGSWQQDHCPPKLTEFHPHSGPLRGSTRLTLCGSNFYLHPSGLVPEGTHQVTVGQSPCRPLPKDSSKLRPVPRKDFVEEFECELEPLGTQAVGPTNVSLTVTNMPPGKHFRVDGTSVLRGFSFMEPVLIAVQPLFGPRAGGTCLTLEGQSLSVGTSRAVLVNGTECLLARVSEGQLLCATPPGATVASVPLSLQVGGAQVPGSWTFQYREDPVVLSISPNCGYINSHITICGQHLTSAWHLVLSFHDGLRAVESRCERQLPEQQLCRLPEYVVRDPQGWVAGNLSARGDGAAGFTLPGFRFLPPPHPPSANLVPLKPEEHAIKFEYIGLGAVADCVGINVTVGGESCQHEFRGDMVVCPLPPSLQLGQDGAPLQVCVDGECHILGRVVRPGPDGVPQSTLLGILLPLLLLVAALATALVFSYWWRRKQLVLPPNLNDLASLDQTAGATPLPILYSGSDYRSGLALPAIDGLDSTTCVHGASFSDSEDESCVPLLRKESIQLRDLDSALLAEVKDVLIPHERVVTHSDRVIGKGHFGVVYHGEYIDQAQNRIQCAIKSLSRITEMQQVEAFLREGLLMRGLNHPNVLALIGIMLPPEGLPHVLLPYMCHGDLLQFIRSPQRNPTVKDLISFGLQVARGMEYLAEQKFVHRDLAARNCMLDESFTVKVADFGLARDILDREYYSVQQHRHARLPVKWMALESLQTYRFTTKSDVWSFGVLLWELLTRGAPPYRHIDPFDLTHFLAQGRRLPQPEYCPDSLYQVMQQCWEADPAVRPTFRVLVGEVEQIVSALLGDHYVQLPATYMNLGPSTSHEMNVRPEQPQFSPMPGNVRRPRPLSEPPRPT
Sequence of Serine/threonine-protein kinase B-raf (P15056 whole entry): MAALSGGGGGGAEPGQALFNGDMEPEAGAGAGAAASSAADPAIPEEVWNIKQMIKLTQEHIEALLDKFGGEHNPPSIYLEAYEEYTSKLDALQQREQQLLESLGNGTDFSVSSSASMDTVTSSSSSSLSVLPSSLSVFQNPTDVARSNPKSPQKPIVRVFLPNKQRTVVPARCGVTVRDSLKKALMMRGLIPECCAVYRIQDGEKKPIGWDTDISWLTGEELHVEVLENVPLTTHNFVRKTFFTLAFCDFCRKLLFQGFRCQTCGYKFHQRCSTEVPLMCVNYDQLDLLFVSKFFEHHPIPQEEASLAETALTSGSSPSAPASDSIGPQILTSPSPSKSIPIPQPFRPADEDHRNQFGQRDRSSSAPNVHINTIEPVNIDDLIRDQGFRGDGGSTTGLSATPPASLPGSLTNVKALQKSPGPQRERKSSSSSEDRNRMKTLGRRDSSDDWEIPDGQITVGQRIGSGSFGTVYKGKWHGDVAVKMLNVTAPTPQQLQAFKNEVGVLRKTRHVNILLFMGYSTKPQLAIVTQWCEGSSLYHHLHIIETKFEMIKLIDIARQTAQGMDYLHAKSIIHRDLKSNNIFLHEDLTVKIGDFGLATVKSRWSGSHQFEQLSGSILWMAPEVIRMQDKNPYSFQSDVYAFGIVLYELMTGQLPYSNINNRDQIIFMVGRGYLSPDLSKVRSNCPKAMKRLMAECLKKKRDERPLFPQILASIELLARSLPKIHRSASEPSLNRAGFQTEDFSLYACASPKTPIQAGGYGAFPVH
Sequence of Tyrosine-protein kinase Fyn (P06241 whole entry): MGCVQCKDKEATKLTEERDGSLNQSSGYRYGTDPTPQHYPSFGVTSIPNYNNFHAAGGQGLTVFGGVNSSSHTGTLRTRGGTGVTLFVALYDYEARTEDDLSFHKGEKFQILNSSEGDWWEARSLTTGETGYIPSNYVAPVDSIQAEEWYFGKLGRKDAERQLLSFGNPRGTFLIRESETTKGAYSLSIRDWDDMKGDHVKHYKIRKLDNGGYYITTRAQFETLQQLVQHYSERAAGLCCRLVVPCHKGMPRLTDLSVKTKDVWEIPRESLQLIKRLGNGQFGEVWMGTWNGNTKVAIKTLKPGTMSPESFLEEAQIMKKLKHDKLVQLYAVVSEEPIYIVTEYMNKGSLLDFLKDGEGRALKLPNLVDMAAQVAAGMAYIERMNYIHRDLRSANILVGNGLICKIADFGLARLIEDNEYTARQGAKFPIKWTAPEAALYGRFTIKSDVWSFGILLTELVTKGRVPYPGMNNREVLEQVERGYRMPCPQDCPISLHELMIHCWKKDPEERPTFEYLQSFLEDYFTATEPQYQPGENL

Cc1cc(-c2cc(OC(=O)c3ccccc3)ccc2Cl)cc2nnc(Nc3ccc(OCCN4CCCC4)cc3)nc12 [TG100-801]
inactive: [1] > 30 µM | [2] > 30 µM | [3] > 30 µM | [4] > 30 µM | [5] > 30 µM | [6] > 30 µM | [7] > 30 µM | Septin-9 > 30 µM | [8] > 30 µM

C[C@@H]1COC(Nc2ccc3ncnc(Nc4ccc(OCc5nccs5)c(Cl)c4)c3c2)=N1 [VARLITINIB]
inactive: [1] > 30 µM | [2] > 30 µM | [3] > 30 µM | [4] > 30 µM | [5] > 30 µM | [6] > 30 µM | [7] > 30 µM | Septin-9 > 30 µM | [8] > 30 µM

CNC(=O)c1cccc(-c2ccc3c(N4CCOC[C@@H]4C)nc(N4CCOC[C@@H]4C)nc3n2)c1 [VISTUSERTIB]
inactive: [1] > 30 µM | [2] > 30 µM | [3] > 30 µM | [4] > 30 µM | [5] > 30 µM | [6] > 30 µM | [7] > 30 µM | Septin-9 > 30 µM | [8] > 30 µM
